Source: PubChem BioAssay AID2060882 (Molecular Pharmacology Branch, DTP, NCI, 2025)

Tested on: 898857-211-R-J1-PDC complex spheroids, growth % test/control
Assay: Anticancer human tumor 898857-211-R-J1-PDC patient-derived melanoma cell line growth inhibition [RAS]
Conditions: for IC50: curve of first compound; for viability, T/C: stronger effect = lower value
In short: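 Agents were tested in combination matrices in half-log decrements from a top concentration at or near clinical Cmax (10 microM if undetermined). Targets were multi-cell spheroids of tumour lines plus HUVEC and MSC stromal cells.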
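Note: spheroids exposed to compound for seven days before readout.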
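Throughout, for viability, T/C: 100% = DMSO vehicle control wells.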

CC(C)NCC(C(=O)N1CCN(c2ncnc3c2C(C)CC3O)CC1)c1ccc(Cl)cc1 (configuration not stated) + CCn1c(-c2cccnc2C(C)OC)c2c3cc(ccc31)N1CCOC(CC(NC(=O)C(C(C)C)N(C)C(=O)C3(F)CCN(C(=O)C#CC(C)(C)N(C)C)CC3)C(=O)N3CCCC(N3)C(=O)OCC(C)(C)C2)C1
IC50 (second compound 0.000949 µM): > 10 µM | IC50 (second compound 0.003 µM): > 10 µM | IC50 (second compound 0.00949 µM): 9.66 µM | IC50 (second compound 0.03 µM): 8.56 µM | IC50 (second compound 0.0949 µM): 5.46 µM | IC50 (second compound 0.3 µM): 3.31 µM | viability, T/C (second compound 0.000949 µM, first compound 0.0316 µM): 111% | viability, T/C (second compound 0.000949 µM, first compound 0.1 µM): 101% | viability, T/C (second compound 0.000949 µM, first compound 0.316 µM): 90.9% | viability, T/C (second compound 0.000949 µM, first compound 1 µM): 91.6% | viability, T/C (second compound 0.000949 µM, first compound 3.16 µM): 65.4% | viability, T/C (second compound 0.000949 µM, first compound 10 µM): 50.9% | viability, T/C (second compound 0.003 µM, first compound 0.0316 µM): 115% | viability, T/C (second compound 0.003 µM, first compound 0.1 µM): 117% | viability, T/C (second compound 0.003 µM, first compound 0.316 µM): 103% | viability, T/C (second compound 0.003 µM, first compound 1 µM): 82.1% | viability, T/C (second compound 0.003 µM, first compound 3.16 µM): 79.6% | viability, T/C (second compound 0.003 µM, first compound 10 µM): 57.2% | viability, T/C (second compound 0.00949 µM, first compound 0.0316 µM): 113% | viability, T/C (second compound 0.00949 µM, first compound 0.1 µM): 110% | viability, T/C (second compound 0.00949 µM, first compound 0.316 µM): 102% | viability, T/C (second compound 0.00949 µM, first compound 1 µM): 84.8% | viability, T/C (second compound 0.00949 µM, first compound 3.16 µM): 73% | viability, T/C (second compound 0.00949 µM, first compound 10 µM): 48.7% | viability, T/C (second compound 0.03 µM, first compound 0.0316 µM): 112% | viability, T/C (second compound 0.03 µM, first compound 0.1 µM): 100% | viability, T/C (second compound 0.03 µM, first compound 0.316 µM): 97.3% | viability, T/C (second compound 0.03 µM, first compound 1 µM): 91.1% | viability, T/C (second compound 0.03 µM, first compound 3.16 µM): 74.4% | viability, T/C (second compound 0.03 µM, first compound 10 µM): 45.6% | viability, T/C (second compound 0.0949 µM, first compound 0.0316 µM): 92% | viability, T/C (second compound 0.0949 µM, first compound 0.1 µM): 89.4% | viability, T/C (second compound 0.0949 µM, first compound 0.316 µM): 92.7% | viability, T/C (second compound 0.0949 µM, first compound 1 µM): 76.4% | viability, T/C (second compound 0.0949 µM, first compound 3.16 µM): 60.1% | viability, T/C (second compound 0.0949 µM, first compound 10 µM): 39.7% | viability, T/C (second compound 0.3 µM, first compound 0.0316 µM): 75% | viability, T/C (second compound 0.3 µM, first compound 0.1 µM): 72.7% | viability, T/C (second compound 0.3 µM, first compound 0.316 µM): 69.5% | viability, T/C (second compound 0.3 µM, first compound 1 µM): 55.9% | viability, T/C (second compound 0.3 µM, first compound 3.16 µM): 53.5% | viability, T/C (second compound 0.3 µM, first compound 10 µM): 37.1%
